Data as given in ChEMBL document CHEMBL1133357, “Inhibition of neuraminidase with neuraminic acid C-glycosides” (Bioorg Med Chem Lett, 2000).

experiment: The compound was tested for its inhibitory activity against bacterial neuraminidase; design: species or system Clostridium perfringens

Compound | Ki [µM]
CC(=O)NC1C(O)CC(C(=O)O)([C@@H](O)C2C(O)C(CO)OC(OC(=O)c3ccccc3)C2O)OC1C(O)C(O)CO (stereo not given in full) | 110
CC(=O)NC1C(O)CC(C(=O)O)([C@H](O)C2C(O)C(CO)OC(OC(=O)c3ccccc3)C2O)OC1C(O)C(O)CO (stereo not given in full) | 229
COC1OC(CO)C(O)C([C@@H](O)C2(C(=O)O)CC(O)C(NC(C)=O)C(C(O)C(O)CO)O2)C1O (stereo not given in full) | > 1000
CC(=O)N[C@H]1C(C(O)C(O)CO)O[C@](C(=O)O)(C(C)(C)O)C[C@H]1O (stereo not given in full) | 29
CCCCCCCC(O)[C@]1(C(=O)O)C[C@@H](O)[C@@H](NC(C)=O)C(C(O)C(O)CO)O1 (stereo not given in full) | 16
